# Laboratory results taken from ChEMBL document CHEMBL1148870, “Novel inhibitors of VEGF receptors-1 and -2 based on azole-5-carboxamide templates” (Bioorg Med Chem Lett, 2007).
# pIC50: −log10 of the molar value.
# Tests used:
# [1] = target: Vascular endothelial growth factor receptor 1 (Homo sapiens, UniProt P17948); test: Inhibition of VEGFR1 assessed as inhibition of phosphorylation in presence of 2 uM ATP by HTRF assay; type: functional
# [2] = target: T1, Vascular endothelial growth factor receptor 2 (Homo sapiens, UniProt P35968); test: Inhibition of VEGFR2 assessed as inhibition of phosphorylation in presence of 2 uM ATP by HTRF assay; type: functional
# [3] = target: T1, Vascular endothelial growth factor receptor 2; test: Inhibition of VEGFR2 assessed as inhibition of phosphorylation in human 293 cells by cell-based ELISA; type: functional, HEK293
# [4] = target: Insulin-like growth factor 1 receptor (Homo sapiens) (UniProt P08069); test: Inhibition of IGF1R at 10 uM; design: scale not given: the % may be the effect or the level left
# Homo sapiens [5] = species: Homo sapiens; test: Inhibition of InR at 10 uM; design: scale not given: the % may be the effect or the level left
# [6] = target: Fibroblast growth factor receptor 1 (Homo sapiens) (UniProt P11362); test: Inhibition of FGFR1 at 10 uM; design: scale not given: the % may be the effect or the level left
# [7] = target: Receptor-type tyrosine-protein kinase FLT3 (Homo sapiens) (UniProt P36888); test: Inhibition of Flt3 at 10 uM; design: scale not given: the % may be the effect or the level left
# [8] = target: Vascular endothelial growth factor receptor 3 (Homo sapiens) (UniProt P35916); test: Inhibition of Flt4 at 10 uM; design: scale not given: the % may be the effect or the level left
# [9] = target: Epidermal growth factor receptor (Homo sapiens) (UniProt P00533); test: Inhibition of ErbB1 at 10 uM; design: scale not given: the % may be the effect or the level left
# [10] = target: Receptor tyrosine-protein kinase erbB-2 (Homo sapiens) (UniProt P04626); test: Inhibition of ErbB2/Her2 at 10 uM; design: scale not given: the % may be the effect or the level left
# [11] = target: Hepatocyte growth factor receptor (Homo sapiens) (UniProt P08581); test: Inhibition of cMet at 10 uM; design: scale not given: the % may be the effect or the level left
# Homo sapiens [12] = species: Homo sapiens; test: Inhibition of PKA at 10 uM; design: scale not given: the % may be the effect or the level left
# [13] = target: Glycogen synthase kinase-3 beta (Homo sapiens) (UniProt P49841); test: Inhibition of GSK3-beta at 10 uM; design: scale not given: the % may be the effect or the level left
# [14] = target: RAC-alpha serine/threonine-protein kinase (Homo sapiens) (UniProt P31749); test: Inhibition of PKB/Akt at 10 uM; design: scale not given: the % may be the effect or the level left
# Homo sapiens [15] = species: Homo sapiens; test: Inhibition of bcr-Abl at 10 uM; design: scale not given: the % may be the effect or the level left
# Homo sapiens [16] = species: Homo sapiens; test: Inhibition of Cdk1 at 10 uM; design: scale not given: the % may be the effect or the level left
# [17] = target: RAF proto-oncogene serine/threonine-protein kinase (Homo sapiens) (UniProt P04049); test: Inhibition of Raf1 at 10 uM; design: scale not given: the % may be the effect or the level left
# [18] = target: Cyclin-dependent kinase 2 (Homo sapiens) (UniProt P24941); test: Inhibition of Cdk2 at 10 uM; design: scale not given: the % may be the effect or the level left
# Sequence of Glycogen synthase kinase-3 beta (Homo sapiens) (P49841 whole entry, looked up): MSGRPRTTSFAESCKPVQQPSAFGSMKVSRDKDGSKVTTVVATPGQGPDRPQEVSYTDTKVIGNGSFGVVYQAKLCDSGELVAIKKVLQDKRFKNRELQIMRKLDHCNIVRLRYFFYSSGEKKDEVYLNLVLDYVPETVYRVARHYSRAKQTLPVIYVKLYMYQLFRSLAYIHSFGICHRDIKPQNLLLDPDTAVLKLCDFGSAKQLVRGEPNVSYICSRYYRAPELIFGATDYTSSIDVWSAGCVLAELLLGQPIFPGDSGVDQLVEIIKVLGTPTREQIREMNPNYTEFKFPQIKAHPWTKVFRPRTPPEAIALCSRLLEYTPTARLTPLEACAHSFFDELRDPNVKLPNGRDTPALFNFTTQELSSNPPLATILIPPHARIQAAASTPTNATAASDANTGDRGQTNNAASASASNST
# Sequence of Vascular endothelial growth factor receptor 1 (P17948 whole entry): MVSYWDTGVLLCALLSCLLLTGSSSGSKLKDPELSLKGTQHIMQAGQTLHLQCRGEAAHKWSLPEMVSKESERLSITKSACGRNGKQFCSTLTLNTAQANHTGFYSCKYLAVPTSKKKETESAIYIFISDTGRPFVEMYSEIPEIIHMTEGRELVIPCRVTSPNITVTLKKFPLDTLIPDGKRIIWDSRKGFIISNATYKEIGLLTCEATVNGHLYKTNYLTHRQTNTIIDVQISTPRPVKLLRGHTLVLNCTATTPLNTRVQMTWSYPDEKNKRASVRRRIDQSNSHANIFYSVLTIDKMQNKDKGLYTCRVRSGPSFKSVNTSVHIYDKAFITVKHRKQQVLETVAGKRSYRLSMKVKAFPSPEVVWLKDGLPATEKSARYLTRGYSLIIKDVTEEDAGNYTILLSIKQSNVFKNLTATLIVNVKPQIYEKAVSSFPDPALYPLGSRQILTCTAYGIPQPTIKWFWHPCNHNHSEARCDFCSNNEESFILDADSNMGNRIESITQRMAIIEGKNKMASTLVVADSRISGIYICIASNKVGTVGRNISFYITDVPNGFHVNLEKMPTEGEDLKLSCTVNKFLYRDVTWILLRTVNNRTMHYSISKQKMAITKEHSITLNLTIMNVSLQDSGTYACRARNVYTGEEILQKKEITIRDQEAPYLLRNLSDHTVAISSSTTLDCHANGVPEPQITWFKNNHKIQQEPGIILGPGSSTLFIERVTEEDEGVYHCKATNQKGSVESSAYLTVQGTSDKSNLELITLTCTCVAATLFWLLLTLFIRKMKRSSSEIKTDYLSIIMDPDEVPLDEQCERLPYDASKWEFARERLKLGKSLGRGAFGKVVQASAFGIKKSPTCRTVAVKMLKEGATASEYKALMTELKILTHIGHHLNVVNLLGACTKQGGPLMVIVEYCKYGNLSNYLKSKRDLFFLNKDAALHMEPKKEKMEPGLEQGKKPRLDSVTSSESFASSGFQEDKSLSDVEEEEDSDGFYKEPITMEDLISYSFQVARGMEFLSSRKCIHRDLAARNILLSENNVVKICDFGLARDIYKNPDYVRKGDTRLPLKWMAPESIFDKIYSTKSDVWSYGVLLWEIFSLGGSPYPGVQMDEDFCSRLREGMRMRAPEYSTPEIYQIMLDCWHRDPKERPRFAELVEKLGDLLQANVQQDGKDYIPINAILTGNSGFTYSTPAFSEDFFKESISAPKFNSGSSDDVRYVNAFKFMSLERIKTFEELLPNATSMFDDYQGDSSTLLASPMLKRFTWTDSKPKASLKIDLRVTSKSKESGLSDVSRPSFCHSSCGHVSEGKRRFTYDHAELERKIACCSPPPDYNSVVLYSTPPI
# Sequence of Receptor-type tyrosine-protein kinase FLT3 (Homo sapiens) (P36888 whole entry): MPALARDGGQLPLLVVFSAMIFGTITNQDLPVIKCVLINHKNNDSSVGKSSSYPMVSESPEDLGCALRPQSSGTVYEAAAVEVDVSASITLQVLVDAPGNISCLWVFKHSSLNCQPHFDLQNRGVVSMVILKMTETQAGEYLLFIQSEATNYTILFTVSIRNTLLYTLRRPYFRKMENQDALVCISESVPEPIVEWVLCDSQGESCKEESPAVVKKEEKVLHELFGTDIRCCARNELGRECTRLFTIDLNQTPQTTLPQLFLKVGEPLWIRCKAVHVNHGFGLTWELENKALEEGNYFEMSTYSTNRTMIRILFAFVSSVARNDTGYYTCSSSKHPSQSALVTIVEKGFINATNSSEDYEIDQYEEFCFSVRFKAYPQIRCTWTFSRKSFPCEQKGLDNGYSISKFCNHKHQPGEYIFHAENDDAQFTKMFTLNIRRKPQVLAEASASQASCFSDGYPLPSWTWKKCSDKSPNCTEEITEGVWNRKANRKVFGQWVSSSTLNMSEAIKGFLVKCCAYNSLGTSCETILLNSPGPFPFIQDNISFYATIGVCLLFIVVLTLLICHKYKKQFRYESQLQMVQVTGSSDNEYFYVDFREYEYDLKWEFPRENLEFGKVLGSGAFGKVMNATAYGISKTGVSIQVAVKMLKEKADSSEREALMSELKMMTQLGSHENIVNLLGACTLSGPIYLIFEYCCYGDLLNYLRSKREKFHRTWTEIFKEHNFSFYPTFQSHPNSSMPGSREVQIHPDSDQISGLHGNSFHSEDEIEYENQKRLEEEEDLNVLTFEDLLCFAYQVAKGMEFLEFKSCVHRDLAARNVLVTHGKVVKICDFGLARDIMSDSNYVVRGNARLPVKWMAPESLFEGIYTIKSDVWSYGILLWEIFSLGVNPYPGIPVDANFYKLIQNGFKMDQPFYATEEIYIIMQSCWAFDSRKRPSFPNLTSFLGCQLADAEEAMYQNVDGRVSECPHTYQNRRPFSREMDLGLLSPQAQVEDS
# Sequence of Receptor tyrosine-protein kinase erbB-2 (Homo sapiens) (P04626 whole entry): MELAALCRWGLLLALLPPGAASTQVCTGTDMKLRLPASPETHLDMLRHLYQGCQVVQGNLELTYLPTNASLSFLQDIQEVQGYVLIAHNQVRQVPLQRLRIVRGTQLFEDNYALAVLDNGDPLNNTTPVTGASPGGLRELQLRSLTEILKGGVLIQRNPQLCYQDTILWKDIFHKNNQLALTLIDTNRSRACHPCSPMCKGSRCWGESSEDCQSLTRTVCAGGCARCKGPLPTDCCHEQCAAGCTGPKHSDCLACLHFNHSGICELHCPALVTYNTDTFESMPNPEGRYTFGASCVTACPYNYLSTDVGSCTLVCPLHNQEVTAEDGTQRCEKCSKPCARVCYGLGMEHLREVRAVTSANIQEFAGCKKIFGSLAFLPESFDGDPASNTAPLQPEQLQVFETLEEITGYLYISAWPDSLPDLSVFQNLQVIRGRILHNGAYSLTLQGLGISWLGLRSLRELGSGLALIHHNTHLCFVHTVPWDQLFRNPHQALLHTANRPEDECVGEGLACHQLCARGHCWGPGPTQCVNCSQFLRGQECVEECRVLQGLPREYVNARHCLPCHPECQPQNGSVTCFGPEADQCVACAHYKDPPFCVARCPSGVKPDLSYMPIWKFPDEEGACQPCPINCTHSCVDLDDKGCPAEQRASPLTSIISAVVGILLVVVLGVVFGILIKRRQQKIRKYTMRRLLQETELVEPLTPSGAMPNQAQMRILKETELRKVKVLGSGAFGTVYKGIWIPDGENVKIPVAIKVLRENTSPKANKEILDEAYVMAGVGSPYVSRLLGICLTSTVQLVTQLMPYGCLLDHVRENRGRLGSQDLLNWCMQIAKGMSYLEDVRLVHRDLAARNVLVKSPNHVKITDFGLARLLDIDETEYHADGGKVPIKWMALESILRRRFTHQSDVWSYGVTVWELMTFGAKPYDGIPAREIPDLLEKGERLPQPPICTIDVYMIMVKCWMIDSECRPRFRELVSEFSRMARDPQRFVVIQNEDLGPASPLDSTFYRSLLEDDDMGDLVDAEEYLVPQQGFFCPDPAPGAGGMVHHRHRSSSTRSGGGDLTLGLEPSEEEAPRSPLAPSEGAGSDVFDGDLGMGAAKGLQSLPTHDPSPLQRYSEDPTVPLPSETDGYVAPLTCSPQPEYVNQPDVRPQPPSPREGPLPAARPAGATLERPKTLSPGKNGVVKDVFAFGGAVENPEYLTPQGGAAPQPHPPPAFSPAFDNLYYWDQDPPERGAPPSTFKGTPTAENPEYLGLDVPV
# Sequence of RAC-alpha serine/threonine-protein kinase (Homo sapiens) (P31749 whole entry): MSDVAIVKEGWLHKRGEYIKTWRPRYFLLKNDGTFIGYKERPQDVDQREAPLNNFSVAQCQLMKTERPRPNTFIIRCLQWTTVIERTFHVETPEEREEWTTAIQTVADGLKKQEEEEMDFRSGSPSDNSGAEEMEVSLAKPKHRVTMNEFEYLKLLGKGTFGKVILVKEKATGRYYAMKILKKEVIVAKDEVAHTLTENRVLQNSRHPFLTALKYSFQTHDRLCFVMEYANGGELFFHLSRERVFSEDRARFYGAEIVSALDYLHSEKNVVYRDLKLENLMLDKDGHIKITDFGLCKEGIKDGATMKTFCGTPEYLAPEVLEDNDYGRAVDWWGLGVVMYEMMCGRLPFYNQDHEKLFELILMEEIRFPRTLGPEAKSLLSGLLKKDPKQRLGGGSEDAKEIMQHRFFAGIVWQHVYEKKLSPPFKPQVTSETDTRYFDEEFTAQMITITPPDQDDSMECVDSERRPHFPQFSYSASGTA
pIC50 [1],pIC50 [2],pIC50 [3],Activity [4],Activity (Homo sapiens [5]),Activity [6],Activity [7],Activity [8],Activity [9],Activity [10],Activity [11],Activity (Homo sapiens [12]),Activity [13],Activity [14],Activity (Homo sapiens [15]),Activity (Homo sapiens [16]),Activity [17],Activity [18],Compound
5.37,6.10,5.98,> 30%,> 30%,> 30%,> 30%,> 30%,< 30%,> 30%,> 30%,> 30%,> 30%,> 30%,> 30%,> 30%,> 30%,> 30%,O=C(Nc1ccc(OC(F)(F)F)cc1)c1nccn1CCc1ccncc1
< 5.00,< 5.00,< 5.00,> 30%,> 30%,> 30%,> 30%,> 30%,< 30%,> 30%,> 30%,> 30%,> 30%,> 30%,> 30%,> 30%,> 30%,> 30%,O=C(Nc1ccc(OC(F)(F)F)cc1)c1cc2ccccc2n1CCc1ccncc1
5.28,5.49,< 5.00,> 30%,> 30%,> 30%,> 30%,> 30%,< 30%,> 30%,> 30%,> 30%,> 30%,> 30%,> 30%,> 30%,> 30%,> 30%,O=C(Nc1ccc(Oc2ccccc2)cc1)c1ccnn1CCc1ccncc1
< 5.00,< 5.00,< 5.00,> 30%,> 30%,> 30%,> 30%,> 30%,< 30%,> 30%,> 30%,> 30%,> 30%,> 30%,> 30%,> 30%,> 30%,> 30%,Cc1nn(CCc2ccncc2)c(C(=O)Nc2ccc(Cl)cc2)c1C
< 5.00,< 5.00,< 5.00,> 30%,> 30%,> 30%,> 30%,> 30%,< 30%,> 30%,> 30%,> 30%,> 30%,> 30%,> 30%,> 30%,> 30%,> 30%,O=C(Nc1ccc(Cl)cc1)c1ccnn1CCc1c[nH]cn1
5.65,5.92,5.87,> 30%,> 30%,> 30%,> 30%,> 30%,< 30%,> 30%,> 30%,> 30%,> 30%,> 30%,> 30%,> 30%,> 30%,> 30%,Cc1cc(C(=O)Nc2ccc(OC(F)(F)F)cc2)n(CCc2ccncc2)n1
5.97,6.07,5.53,> 30%,> 30%,> 30%,> 30%,> 30%,< 30%,> 30%,> 30%,> 30%,> 30%,> 30%,> 30%,> 30%,> 30%,> 30%,O=C(Nc1ccc(C(F)(F)F)cc1)c1nnnn1CCc1ccncc1
< 5.00,< 5.00,,,,,,,,,,,,,,,,,CN(C(=O)c1ccnn1CCc1ccncc1)c1ccc(Cl)cc1
